Results taken from patent US9487516B2, “Antibacterial oxadiazolone derivatives” (priority 2013, dated 2016).
Values after ≈ are worked out from the molar mass of the structure shown.

Columns and labels:
Assay in all cases: Bacterial growth minimal inhibitory concentration (microdilution, cation-adjusted Mueller-Hinton Broth)
Format in all cases: cell-based
[1] = test system: Staphylococcus aureus ATCC29213; details: methicillin-sensitive and quinolone-sensitive strain, read-out: MIC for S. aureus ATCC29213
Protocol: (§1) Minimal Inhibitory Concentrations (MICs; mg/L) were determined in cation-adjusted MuellerHinton Broth by a microdilution method following the description given in “Methods for Dilution Antimicrobial Susceptibility Tests for Bacteria that Grow Aerobically”, Approved standard, 7th ed., Clinical and Laboratory Standards Institute (CLSI) Document M7-A7, Wayne, Pa., USA, 2006.
(§2) All Example compounds were tested against several Gram positive and Gram negative bacteria. […] Staphylococcus aureus A798, Enterococcus faecium A949 and Acinetobacter baumanii T6474 are multiply-resistant strains (in particular quinolone-resistant), while Moraxella catarrhalis A894 is a quinolone-sensitive strain and Staphylococcus aureus ATCC29213 is a methicillin-sensitive and quinolone-sensitive strain.

[2] = test system: Staphylococcus aureus A798; details: multiply-resistant strain (in particular quinolone-resistant), read-out: MIC for S. aureus A798
Protocol: as §1, §2

[3] = test system: Acinetobacter baumanii T6474; details: Acinetobacter baumannii, multiply-resistant strain (in particular quinolone-resistant)
Protocol: as §1, §2

[4] = test system: Enterococcus faecium A949; details: multiply-resistant strain (in particular quinolone-resistant), read-out: MIC for E. faecium A949
Protocol: as §1, §2

[5] = test system: Moraxella catarrhalis A894; details: quinolone-sensitive strain
Protocol: as §1, §2

MIC [1] [µg/mL] | MIC [2] [µg/mL] | MIC [3] [µg/mL] | MIC [4] [µg/mL] | MIC [5] [µg/mL] | SMILES
1 (≈ 2.11 µM) | 2 (≈ 4.22 µM) | 2 (≈ 4.22 µM) | 2 (≈ 4.22 µM) | 0.5 (≈ 1.05 µM) | Cc1ccc2ccc(=O)n3c2c1[C@H](NCCCc1nn(-c2ccc4c(n2)NC(=O)CO4)c(=O)o1)C3 [Example 40, (S)-9-methyl-1-{3-[5-oxo-4-(3-oxo-3,4-dihydro-2H-pyrido[3,2-b][1,4]oxazin-6-yl)-4,5-dihydro-[1,3,4]oxadiazol-2-yl]-propylamino}-1,2-dihydro-pyrrolo[3,2,1-ij]quinolin-4-one]
0.063 (≈ 0.13 µM) | 0.125 (≈ 0.257 µM) | 0.125 (≈ 0.257 µM) | 0.5 (≈ 1.03 µM) | 0.063 (≈ 0.13 µM) | N#Cc1ccc2ccc(=O)n3c2c1[C@H](NCCCc1nn(-c2ccc4c(n2)NC(=O)CO4)c(=O)o1)C3 [Example 41, (S)-4-oxo-1-{3-[5-oxo-4-(3-oxo-3,4-dihydro-2H-pyrido[3,2-b][1,4]oxazin-6-yl)-4,5-dihydro-[1,3,4]oxadiazol-2-yl]-propylamino}-1,2-dihydro-4H-pyrrolo[3,2,1-ij]quinoline-9-carbonitrile]
